Data on four compounds can be found in patent US6652921B2, “Wood containing fixed sorbic acid or sorbic acid salts” (Nutrinova Nutrition Specialties & Food Ingredients GmbH, priority 2000, dated 2003).

For data set [1] the following is noted: cited from earlier work; for Solubility in water: water (cold water for sorbic acid).
For a further data set, the system named is fungi. Particulars: cited from earlier work.
A further data set has as its system wood-damaging fungi. Particulars: cited from earlier work.
For data set [2] the following is noted: humans; internationally established; cited from earlier work.
For data set [3] the following is noted: mean body weight of 60 kg. Here is the method: Sorbic acid and its salts are accordingly permitted for food use by international committees and permitted worldwide as a preservative for direct addition to foods. The internationally established tolerable daily dose for humans of up to 25 mg/kg of body weight corresponds to a tolerable consumption by adults of up to 1.5 g per day (at a mean body weight of 60 kg).

Regarding `C/C=C/C=C/C(=O)[O-].[K+]` [Potassium sorbate], in data set [1], the Solubility in water entry is reported as “dissolves very readily in water”.
Take `C/C=C/C=C/C(=O)[O-].[Na+]` [sodium sorbate]: the “Growth of fungi on treated bamboo” value in the data set with fungi (after a few days) was “growth of fungi and poorer results than the dehydroacetic acid”. Further, the “Activity depending on pH” value with fungi (bamboo) is “only active in these studies at a pH of 3.0”.
In the case of `C/C=C/C=C/C(=O)[O-].C/C=C/C=C/C(=O)[O-].[Zn+2]` [zinc salt of sorbic acid], the “Activity as wood preservative” value in the data set on wood-damaging fungi was “inactive”.
On to `C/C=C/C=C/C(=O)O` [Sorbic acid, trans, trans-2,4-hexadienoic acid], for which the “Solubility in liquid alcohols” value in data set [1] (liquid alcohols) is “good”. Further, the Solubility in water result in data set [1] is reported as “dissolves only sparingly in cold water”. Also, the Tolerable daily dose result in data set [2] is on record as “up to 25 mg/kg of body weight”. Further, the “Tolerable consumption by adults” value in data set [3] is reported as “up to 1.5 g per day”.
